Results: patent US20220267288A1, “CARDIAC THERAPEUTIC” (priority 2019, published 2022)
pKi: −log10 of the molar value.

Columns and labels:
[1] = test system: hiPSC-CM; assay: Extracellular field potential duration (FPD), multi electrode array; format: cell-based, human; conditions: MEA, 0-10 μM
Protocol: Electrophysiological perturbations of hiPSC-CM were measured using multi electrode array (MEA) recording system (Multichannel Systems, Reutlingen, Germany). […] FPD measurements were normalized (corrected FPD [cFPD]) to the beating rate of the contracting areas with the Bazzet correction formula: cFPD=FPD/√(RR interval) as described previously^3. One-phase decay algorithm was used to plot corrected FPD curves.

[2] = molecular target: T1, CYP3A5 (Homo sapiens, UniProt P20815); assay: Time- and concentration-dependent inactivation of CYP3A5, rivaroxaban probe; format: in vitro ADME; conditions: recombinant CYP3A5, pH 7.4, probe rivaroxaban (50 μM), in vitro data obtained, read-out: Mechanism-based inactivation KI CYP3A5
T1 construct: purchased BD Gentest (Woburn, Mass.)
Protocol: Incubations were conducted in triplicates in 96-well plates. Primary incubation mixtures comprising various concentrations of inhibitor (0-20 μM) were pre-incubated at 37° C. for 3 min with CYP3A4 or CYP3A5 (20 pmol/mL) and NADPH B in potassium phosphate buffer (100 mM, pH 7.4). To initiate the enzymatic reaction, 5 μL NADPH A was added to the primary incubation. The final primary incubation mixture volume was 100 μL and contained <1% v/v organic solvent. At different pre-incubation time points (3, 8, 15, 22, 30, and 45 min) after the addition of NADPH A, 5 μL aliquots of the primary incubation were transferred to 95 μL of the secondary incubation containing 50 μM rivaroxaban, the NADPH A and B, and potassium phosphate buffer (100 mM, pH 7.4) to yield a 20-fold dilution. The secondary incubation mixtures were incubated at 37° C. for 2 h with CYP3A4 or CYP3A5 before 80 μL aliquots were removed and quenched with an equal volume of ice-cold ACN containing 4 μM dexamethasone as IS. The samples were then centrifuged at 3220 g at 4° C. for 30 min before transferring the supernatant to a 96-well plate for liquid chromatography-tandem mass spectrometry (LC-MS/MS) analysis. The main rivaroxaban metabolite, morpholinone hydroxylated metabolite, was quantified using LC-MS/MS analysis. […]

[3] = molecular target: T2, CYP2J2 (Homo sapiens, UniProt P51589); assay: In-vitro metabolic half-life with recombinant CYP2J2; format: in vitro ADME; conditions: recombinant CYP2J2, NADPH, 1 μM drug, read-out: Metabolic half-life (T1/2)
T2 sequence (P51589 1-502): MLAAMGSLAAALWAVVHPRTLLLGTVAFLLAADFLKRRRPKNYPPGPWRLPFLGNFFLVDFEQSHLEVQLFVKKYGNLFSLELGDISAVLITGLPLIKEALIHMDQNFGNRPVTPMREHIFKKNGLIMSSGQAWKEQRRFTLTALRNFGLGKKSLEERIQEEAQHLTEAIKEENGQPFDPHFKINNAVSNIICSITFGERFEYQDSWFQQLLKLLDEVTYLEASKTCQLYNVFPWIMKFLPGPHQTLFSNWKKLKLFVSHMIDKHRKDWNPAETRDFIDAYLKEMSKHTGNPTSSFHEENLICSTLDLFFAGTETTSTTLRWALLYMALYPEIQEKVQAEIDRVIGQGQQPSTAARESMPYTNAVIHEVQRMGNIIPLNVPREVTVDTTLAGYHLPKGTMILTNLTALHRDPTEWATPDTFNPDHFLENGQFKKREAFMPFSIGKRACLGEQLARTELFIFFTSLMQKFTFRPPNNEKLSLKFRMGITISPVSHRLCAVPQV

[4] = molecular target: T2, CYP2J2; assay: Time- and concentration-dependent inactivation (MBI) of CYP2J2, rivaroxaban as probe substrate; format: biochemical; parameters: purchased BD Gentest (Woburn, Mass.)
Protocol: Incubations were conducted in triplicates in 96-well plates. Primary incubation mixtures comprising various concentrations of inhibitor (0-20 μM) were pre-incubated at 37° C. for 3 min with CYP450 enzymes (20 pmol/m L) and NADPH B in potassium phosphate buffer (100 mM, pH 7.4). To initiate the enzymatic reaction, 5 μL NADPH A was added to the primary incubation. The final primary incubation mixture volume was 100 μL and contained <1% v/v organic solvent. At different pre-incubation time points (3, 8, 15, 22, 30, and 45 min) after the addition of NADPH A, 5 μL aliquots of the primary incubation were transferred to 95 μL of the secondary incubation containing 50 μM rivaroxaban, the NADPH A and B, and potassium phosphate buffer (100 mM, pH 7.4) to yield a 20-fold dilution. The secondary incubation mixtures were incubated at 37° C. for 30 min with CYP2J2, before 80 μL aliquots were removed and quenched with an equal volume of ice-cold ACN containing 4 μM dexamethasone as IS. The samples were then centrifuged at 3220 g at 4° C. for 30 min before transferring the supernatant to a 96-well plate for liquid chromatography-tandem mass spectrometry (LC-MS/MS) analysis. The main rivaroxaban metabolite, morpholinone hydroxylated metabolite, was quantified using LC-MS/MS analysis.
The mean of triplicate peak area ratios for each concentration and pre-incubation time was normalized to that of 0 μM with the same pre-incubation time. The amount of rivaroxaban metabolite formed during the secondary incubation, a measure of the probe substrate activity remaining, was computed and the natural logarithm of this measure was plotted against inactivation pre-incubation time for each inactivator concentration. […]
In equation 1, kinact=maximum inactivation rate constant at infinite inactivator concentration (in min^−1); KI=concentration of inactivator at the half-maximal rate constant of inactivation (in μM); [I]=in vitro inactivator concentration (in μM). MBI potency (kinact/KI ratio, μM-1·min-1) against human recombinant CYP2J2 is determined for each compound. […]

[5] = molecular target: T2, CYP2J2; parameters: endogenous in cells; host or cells: hiPSC-CM (from human foreskin fibroblasts); conditions: PBPK parameter; read-out: Reversible inhibition Ki CYP2J2; cited from earlier work

T1 sequence (P20815 whole entry): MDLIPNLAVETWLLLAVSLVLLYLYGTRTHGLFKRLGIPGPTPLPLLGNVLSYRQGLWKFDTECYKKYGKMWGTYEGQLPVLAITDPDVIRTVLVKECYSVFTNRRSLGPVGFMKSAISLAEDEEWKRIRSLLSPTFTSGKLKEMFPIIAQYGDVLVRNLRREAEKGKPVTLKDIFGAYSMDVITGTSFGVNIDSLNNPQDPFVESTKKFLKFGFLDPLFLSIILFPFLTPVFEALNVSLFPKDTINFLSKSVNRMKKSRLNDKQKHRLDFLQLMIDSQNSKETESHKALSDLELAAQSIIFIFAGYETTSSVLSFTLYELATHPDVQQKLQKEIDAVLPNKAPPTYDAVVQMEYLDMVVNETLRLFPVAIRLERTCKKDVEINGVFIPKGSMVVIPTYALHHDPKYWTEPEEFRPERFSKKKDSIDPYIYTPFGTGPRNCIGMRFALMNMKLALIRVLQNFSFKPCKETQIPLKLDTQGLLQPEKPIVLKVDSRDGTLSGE

Compound	effect on extracellular field potential duration (FPD) [1]	KI (inactivation) [2] [nM]	half-life at 1 μM [3] [min]	inactivation (MBI) of CYP2J2, in words [4]	pKi [5]
CCCCc1oc2ccc(NS(C)(=O)=O)cc2c1C(=O)c1ccc(OCCCN(CCCC)CCCC)cc1.Cl [Dronedarone]	Dose-dependent increase in the FPD	5370	4.95	demonstrated inactivation of CYP2J2	6.03
Cl.[2H]c1c(NS(C)(=O)=O)c([2H])c2c(C(=O)c3ccc(OCCCN(CCCC)CCCC)cc3)c(CCCC)oc2c1[2H] [Poyendarone, Methanesulfonamide, N-(2-butyl-3-(4-(3-(dibutylamino)propoxy)benzoyl)-1-benzo(4,6,7-d3)-furan-5-yl)hydrochloride]	Dose-dependent increase in the FPD	2910	5.32	does not cause MBI of CYP2J2	6.03
